The record followed here is PMC6327999, “Hydroxyl-substituted double Schiff-base condensed 4-piperidone/cyclohexanones as potential anticancer agents with biological evaluation” (Journal of Enzyme Inhibition and Medicinal Chemistry, 2019).

Common to all, as to type: cell-based
For experiment [1], the system named is human carcinoma cell lines A549, SGC7901, HePG2, HeLa, K562, THP-1. Briefly: Cytotoxicity, MTT assay, panel of human carcinoma cell lines (average / overall). The settings on record: for IC50: Homo sapiens. The source says: (§1) Compounds 2a–d, 3a–e, 4a–e, 5a–d, and 6a–c were screened against human neoplastic cell lines such as human lung carcinoma cells (A549), human gastric adenocarcinoma cells (SGC7901), human cervical carcinoma cells (HeLa), human liver hepatocellular carcinoma cell line (Hepg2), human chronic myelogenous leukemia cell line (K562), human acute mononuclear granulocyte leukemia (THP-1), human normal heptical cell line (LO2) (Table 1) using modified MTT assay (3-(4,5-dimethyl-2-thiazolyl)-2,5-diphenyl-2-H-tetrazolium bromide, MTT, Dojindo Laboratories, Tokyo, Japan). All cell lines were maintained at 37 °C in a humidified 5% CO2 and 95% air atmosphere. The HePG2 cell lines were cultured in DMEM containing 10% fetal bovine serum. Other cell lines were grown in medium 1640 and supplemented with 10% fetal bovine serum. […] Controls were prepared with 0.1% DMSO (v/v) only. The cells were seeded in a 96-well plate in 200 µL medium per well at a density of 1 × 10^4 cells/well for 24 hours. The cells were treated with serial concentrations of compound and incubated for 24 hours. Cells with only culture media were used as control. After the media was removed, 20 µL of MTT (5 mg/mL) was added then the plates were incubated for 4 hours at 37 °C in cell culture incubator. The MTT containing media were removed and then 150 µL of DMSO was added to dissolve the dark-blue formazan crystals. The optical density (OD) was measured by a multi-well plate reader (TECAN, Männedorf, Switzerland) at 570 nm. The results are expressed as a decrease in the cell viability (%) in comparison to untreated controls. The concentration of each compound was examined in triplicate, and the IC50 values are expressed in Table 1. The concentrations of the compounds were 50, 20, 10, 5, 2.5, 1, 0.5, 0.1, 0.05 and 0.01 µg/mL. Doxorubicin (DOX) and Curcumin were used as positive controls. […] The concentrations of curcumin used were 100, 50, 25, 12.5, 6.25, 3.125, 1, 0.5 and 0.1 µg/mL.
The cytotoxicity activities against human carcinoma cell lines A549, SGC7901, HePG2, HeLa, K562, THP-1 and cytotoxicity toward LO2 cell lines were evaluated by MTT method. DOX and curcumin were used as positive control. The selectivity index (SI) is the quotient of the IC50 values towards nonmalignant LO2 cells. […] Especially for 4a–e, 5a–d, and 6a–c, this ratio can reach about 92%.
A general note: Tetrazolium dyes change colour on reduction, which living cells bring about.

The test system of experiment [2] is human liver hepatocellular carcinoma cell line (Hepg2). Briefly: Cytotoxicity, MTT assay, HePG2. The settings on record: for IC50: Homo sapiens, HepG2, MTT, 24 hours; for HePG2 SI: quotient of the IC50 values towards nonmalignant LO2 cells.
Excerpt: as §1, with “µg/mL.” for “µg/mL. Doxorubicin (DOX) and Curcumin were used as positive controls.”

Experiment [3] has as its system human cervical carcinoma cells (HeLa). Kind of experiment: Cytotoxicity, MTT assay, HeLa. The settings on record: for IC50: Homo sapiens, HeLa, MTT, 24 hours; for HeLa SI: quotient of the IC50 values towards nonmalignant LO2 cells.
Excerpt: as §1

Experiment [4] relates to human chronic myelogenous leukemia cell line (K562). Kind of experiment: Cytotoxicity, MTT assay, K562. As to conditions: for IC50: Homo sapiens, K562, MTT, 24 hours; for K562 SI: quotient of the IC50 values towards nonmalignant LO2 cells.
Excerpt: as §1

The test system of experiment [5] is human normal heptical cell line (LO2). Briefly: Cytotoxicity, MTT assay, non-malignant LO2. The settings on record: 24 hours, non-malignant cells.
Excerpt: as §1

Experiment [6] has as its system human gastric adenocarcinoma cells (SGC7901). Kind of experiment: Cytotoxicity, MTT assay, SGC7901. The settings on record: for IC50: Homo sapiens, SGC-7901, MTT, 24 hours; for SGC7901 SI: quotient of the IC50 values towards nonmalignant LO2 cells.
Excerpt: as §1

For experiment [7], the system named is human lung carcinoma cells (A549). Kind of experiment: Cytotoxicity, MTT assay, A549. As to conditions: for IC50: Homo sapiens, A549, MTT, 24 hours; for A549 SI: quotient of the IC50 values towards nonmalignant LO2 cells.
Excerpt: as §1

The subject of experiment [8] is human acute mononuclear granulocyte leukemia (THP-1). Briefly: Cytotoxicity, MTT assay, THP-1. As to conditions: for IC50: Homo sapiens, THP-1, MTT, 24 hours; for THP-1 SI: quotient of the IC50 values towards nonmalignant LO2 cells.
Excerpt: as §1

Where [9] appears, read: average over the six carcinoma cell lines, read-out: Ave IC50.
[10] abbreviates: average over the six carcinoma cell lines.

Like-named read-outs stand apart in the source and are kept apart here.

By IC50 is commonly meant the point on the concentration scale where inhibition reaches its midpoint.

Regarding `Nc1cccc(/C=C2\CCC/C(=C\c3cccc(N)c3)C2=O)c1` [2a, (2E,6E)-2,6-bis(3-aminobenzylidene)cyclohexanone], the IC50 in experiment [1] (setting [9]) was 13.7 µM; in experiment [1] (statement for all experimental carcinoma cell lines, read-out: IC50 values against human carcinoma cell lines), greater than 5 µM; in experiment [2] it was 10.7 ± 0.5 µM; in experiment [3], 25.9 ± 3.7 µM; in experiment [4], 22.2 ± 1.9 µM; in experiment [5] it was 28.2 ± 3.9 µM. Also, the IC50 came out at 9.4 ± 0.2 µM in experiment [6], 7.9 ± 0.1 µM in experiment [7] and 6.2 ± 1.1 µM in experiment [8]. Further, the “Ave SI” value in experiment [1] (setting [10]) is recorded as 2.7. Further, in experiment [2], the “HePG2 SI” value is 2.6. Further, in experiment [3], the “HeLa SI” value was determined as 1.1. Besides, the “K562 SI” value in experiment [4] stood at 1.3. Moreover, in experiment [7], the “A549 SI” value is recorded as 3.6. Also, the “THP-1 SI” value in experiment [8] came to 4.5.

In the case of `CN1C/C(=C\c2cccc(N)c2)C(=O)/C(=C/c2cccc(N)c2)C1` [2b, (3E,5E)-3,5-bis(3-aminobenzylidene)-1-methylpiperidin-4-one], the IC50 in experiment [1] (setting [9]) was found to be 4 µM; in experiment [2] it was 3.1 ± 0.2 µM; in experiment [3], 4.4 ± 0.1 µM; in experiment [4], 4.3 ± 0.1 µM; in experiment [5], 16.9 ± 0.2 µM; in experiment [6] it was 4.2 ± 0.3 µM. Further, the IC50 in experiment [7] amounted to 6.5 ± 0.1 µM; in experiment [8] it was 1.5 ± 0.1 µM. The “Ave SI” value in experiment [1] (setting [10]) stood at 5.2. The “HePG2 SI” value in experiment [2] is reported as 5.4. In experiment [3], the “HeLa SI” value is listed as 3.8. The “K562 SI” value in experiment [4] came out at 3.9. For the same molecule, the “SGC7901 SI” value in experiment [6] came out at 4.0. Further, in experiment [7], the “A549 SI” value stood at 2.6. In addition, in experiment [8], the “THP-1 SI” value is reported as 11.5.

Turning to `Nc1ccc(F)c(/C=C2\CNC/C(=C\c3cc(N)ccc3F)C2=O)c1` [2c], the IC50 in experiment [1] (setting [9]) was 2.9 µM; in experiment [2], 5.8 ± 0.2 µM; in experiment [3] it was 2.2 ± 0.1 µM; in experiment [4] it was 2 ± 0.1 µM; in experiment [5], 18.8 ± 1.4 µM; in experiment [6] it was 2.5 ± 0.8 µM. Besides, the values for the IC50 in experiment [7] and in experiment [8] were 3.4 ± 1.2 µM and 1.4 ± 0.2 µM, respectively. Also, the “Ave SI” value in experiment [1] (setting [10]) stood at 8.0. Besides, in experiment [2], the “HePG2 SI” value came out at 3.2. Besides, the “HeLa SI” value in experiment [3] was determined as 8.7. Also, the “K562 SI” value in experiment [4] is listed as 9.3. In experiment [6], the “SGC7901 SI” value was determined as 7.4. For the same molecule, the “A549 SI” value in experiment [7] came out at 5.5. The “THP-1 SI” value in experiment [8] was 13.9.

Turning to `CN1C/C(=C\c2cc(N)ccc2F)C(=O)/C(=C/c2cc(N)ccc2F)C1` [2d], the concentration for half-maximal inhibition (IC50) was 3.7 µM in experiment [1] (setting [9]); 6.2 ± 0.3 µM in experiment [2]; 3.1 ± 0.1 µM in experiment [3]; 3 ± 0.1 µM in experiment [4]; 21.6 ± 2.8 µM in experiment [5]; 3.8 ± 1.2 µM in experiment [6]. For the same molecule, the IC50 was 4.1 ± 1 µM in experiment [7] and 2.1 ± 1.1 µM in experiment [8]. The “Ave SI” value in experiment [1] (setting [10]) came to 6.5. Besides, the “HePG2 SI” value in experiment [2] was determined as 3.5. The “HeLa SI” value in experiment [3] was 6.9. Further, the “K562 SI” value in experiment [4] is on record as 7.3. Also, the “SGC7901 SI” value in experiment [6] was 5.6. Also, the “A549 SI” value in experiment [7] was 5.4. The “THP-1 SI” value in experiment [8] turned out to be 10.3.

With `O=C1/C(=C/c2cccc(/N=C/c3ccccc3O)c2)CCC/C1=C\c1cccc(/N=C/c2ccccc2O)c1` [3a], the IC50 in experiment [1] (setting [9]) is 6.1 µM; in experiment [2], 3.3 ± 0.1 µM; in experiment [3], 9.9 ± 0.3 µM; in experiment [4], 3.4 ± 0.01 µM; in experiment [5] it was 18.2 ± 0.2 µM; in experiment [6] it was 11.4 ± 0.2 µM. The IC50 in experiment [7] came out at 7.4 ± 0.3 µM; in experiment [8], 1.5 ± 0.1 µM. In addition, in experiment [1] (setting [10]), the “Ave SI” value is given as 4.9. In experiment [2], the “HePG2 SI” value is 5.6. Besides, the “HeLa SI” value in experiment [3] stood at 1.8. The “K562 SI” value in experiment [4] came out at 5.4. Also, the “SGC7901 SI” value in experiment [6] is 1.6. In experiment [7], the “A549 SI” value came out at 2.5. In addition, the “THP-1 SI” value in experiment [8] was found to be 12.4.

Regarding `O=C1/C(=C/c2cccc(/N=C/c3cc(F)ccc3O)c2)CCC/C1=C\c1cccc(/N=C/c2cc(F)ccc2O)c1` [3b], the IC50 in experiment [1] (setting [9]) is 4.3 µM; in experiment [2], 2.8 ± 0.1 µM; in experiment [3], 8.9 ± 0.2 µM; in experiment [4] it was 3.4 ± 0.01 µM; in experiment [5] it was 17.1 ± 0.1 µM; in experiment [6] it was 2.7 ± 0.6 µM. For the same molecule, the values for the IC50 in experiment [7] and in experiment [8] were 6.1 ± 0.4 µM and 1.6 ± 0.1 µM, respectively. Moreover, the “Ave SI” value in experiment [1] (setting [10]) turned out to be 5.5. The “HePG2 SI” value in experiment [2] is 6.1. Moreover, the “HeLa SI” value in experiment [3] is 1.9. In addition, the “K562 SI” value in experiment [4] is on record as 5.0. In addition, the “SGC7901 SI” value in experiment [6] is 6.4. The “A549 SI” value in experiment [7] came out at 2.8. Also, the “THP-1 SI” value in experiment [8] turned out to be 10.5.

As for `O=C1/C(=C/c2cccc(/N=C/c3cc(Br)ccc3O)c2)CCC/C1=C\c1cccc(/N=C/c2cc(Br)ccc2O)c1` [3c], the IC50 was 10 µM in experiment [1] (setting [9]); 13.7 ± 1.1 µM in experiment [2]; 11.4 ± 0.9 µM in experiment [3]; 14 ± 0.1 µM in experiment [4]; 12 ± 0.1 µM in experiment [5]; 5.2 ± 0.8 µM in experiment [6]. The IC50 in experiment [7] was determined as 10.6 ± 1.1 µM; in experiment [8], 5.3 ± 0.01 µM. Moreover, in experiment [1] (setting [10]), the “Ave SI” value came to 1.4. The “HePG2 SI” value in experiment [2] is on record as 0.9. Besides, the “HeLa SI” value in experiment [3] is 1.0. The “K562 SI” value in experiment [4] was 0.9. For the same molecule, in experiment [6], the “SGC7901 SI” value amounted to 2.3. Further, in experiment [7], the “A549 SI” value came out at 1.1. Also, the “THP-1 SI” value in experiment [8] stood at 2.3.

With `COc1ccc(/C=N/c2cccc(/C=C3\CCC/C(=C\c4cccc(/N=C/c5ccc(OC)cc5O)c4)C3=O)c2)c(O)c1` [3d], the IC50 in experiment [1] (setting [9]) was determined as 5.8 µM; in experiment [2], 4 ± 0.1 µM; in experiment [3], 13.1 ± 1 µM; in experiment [4], 3.2 ± 0.02 µM; in experiment [5], 11.3 ± 0.1 µM; in experiment [6], 7.1 ± 1 µM. The IC50 turned out to be 4.1 ± 0.6 µM in experiment [7] and 3.2 ± 0.03 µM in experiment [8]. In experiment [1] (setting [10]), the “Ave SI” value came to 2.5. For the same molecule, in experiment [2], the “HePG2 SI” value stood at 2.9. Further, in experiment [3], the “HeLa SI” value worked out at 0.9. Further, the “K562 SI” value in experiment [4] came out at 3.6. The “SGC7901 SI” value in experiment [6] amounted to 1.6. In addition, the “A549 SI” value in experiment [7] was found to be 2.8. Besides, the “THP-1 SI” value in experiment [8] is on record as 3.6.
